Results from patent publication US9096492B2, “Hydrated N-fullerene amino acids, method for producing the latter, and pharmaceutical compositions on the basis thereof” (priority 2011, dated 2015).
Like-named read-outs stand apart in the source and are kept apart here.

Experiments:
[1] = rat, in vivo
[2] = system: solid Ehrlich carcinoma; experiment: Solid Ehrlich carcinoma in white mice, tumor size dynamics
[3] = system: type 1 human immunodeficiency virus; experiment: Antiviral activity on HIV-1 infected human cell model (cell staining, CPE, syncytium formation); details: for CPE/syncytia (+): number of pluses of the four-plus system; for Cell survival rate, % / Number of cells × 10^3/mL: HIV-1 infected cells
[4] = Chronic toxicity in rats, intramuscular 30 days: clinical observation and body weight; details: 3, 9, or 20 mg/kg intramuscularly daily for a month
[5] = rat, in vivo; remark: listed apart in the source
[6] = Chronic toxicity in rats: autopsy and weight coefficients of viscera; details: any of the tested doses; after the end of administration
[7] = system: human lymphoblastoid cells; experiment: Cytotoxicity in human lymphoblastoid cells model
[8] = rat, in vivo; remark: listed apart in the source
[9] = system: Ehrlich ascites carcinoma; experiment: Ehrlich ascites carcinoma in white mice, body weight dynamics

Substance: N-fullerene tris(δ-aminocaproic acid) hydrate [Agent 1]
- Animal body weight, g (M ± SD) (females, 5 mg/kg single i.m., day 0): 19.1 ± 2. g
- Animal body weight, g (M ± SD) (females, 5 mg/kg single i.m., day 7): 20.6 ± 2 g
- Animal body weight, g (M ± SD) (females, 5 mg/kg single i.m., day 14): 22.8 ± 2. g
- Animal body weight, g (M ± SD) (females, 50 mg/kg single i.m., day 0): 18.6 ± 1. g
- Animal body weight, g (M ± SD) (females, 50 mg/kg single i.m., day 7): 19.9 g
- Animal body weight, g (M ± SD) (females, 50 mg/kg single i.m., day 14): 21.9 ± 1. g
- Animal body weight, g (M ± SD) (females, 500 mg/kg single i.m., day 0): 18.9 ± 1. g
- Animal body weight, g (M ± SD) (females, 500 mg/kg single i.m., day 7): 20.7 ± 0 g
- Animal body weight, g (M ± SD) (females, 500 mg/kg single i.m., day 14): 22.8 ± 1. g
- Animal body weight, g (M ± SD) (males, 5 mg/kg single i.m., day 0): 23.0 ± 2.9 g
- Animal body weight, g (M ± SD) (males, 5 mg/kg single i.m., day 7): 24.1 ± 2 g
- Animal body weight, g (M ± SD) (males, 5 mg/kg single i.m., day 14): 25.4 ± 2. g
- Animal body weight, g (M ± SD) (males, 50 mg/kg single i.m., day 0): 22.4 ± 2.1 g
- Animal body weight, g (M ± SD) (males, 50 mg/kg single i.m., day 7): 23.7 ± 2 g
- Animal body weight, g (M ± SD) (males, 50 mg/kg single i.m., day 14): 25.4 ± 2. g
- Animal body weight, g (M ± SD) (males, 500 mg/kg single i.m., day 0): 22.6 ± 2.2 g
- Animal body weight, g (M ± SD) (males, 500 mg/kg single i.m., day 7): 24.2 ± 1 g
- Animal body weight, g (M ± SD) (males, 500 mg/kg single i.m., day 14): 26.2 ± 1. g
- local irritant effect (mice and rats, after a single intramuscular injection): does not cause a local irritant effect
- death during the 14-day observation period (mice, 5, 50 and 500 mg/kg single i.m.): No death occurred
- LD50 (mice, single intramuscular administration, exceeds the maximal tested dose): > 500 mg/kg
- Glucose: number of animals with values going beyond the limits ([1]; 3 mg/kg): 0
- Leukocytes: number of animals with values going beyond the limits ([1]; 3 mg/kg): 3
- Protein: number of animals with values going beyond the limits ([1]; 9 mg/kg): 3
- Bilirubin: number of animals with values going beyond the limits ([1]; 20 mg/kg): 0
- Erythrocytes: number of animals with values going beyond the limits ([1]; 20 mg/kg): 5
- Glucose: number of animals with values going beyond the limits ([1]; 20 mg/kg): 0
- Nitrites: number of animals with values going beyond the limits ([1]; 20 mg/kg): 1
- Tumor size (mm^3) ([2]; 100 mg/kg, day 8 post transplantation): 72.5 mm^3
- Tumor size (mm^3) ([2]; 100 mg/kg, day 13 post transplantation): 544.3 mm^3
- Tumor size (mm^3) ([2]; 100 mg/kg, day 17 post transplantation): 693.6 mm^3
- Tumor size (mm^3) ([2]; 100 mg/kg, day 21 post transplantation): 1250.8 mm^3
- Tumor size (mm^3) ([2]; 100 mg/kg, day 24 post transplantation): 1654.3 mm^3
- Tumor size (mm^3) ([2]; 100 mg/kg, day 28 post transplantation): 2239.8 mm^3
- Tumor size (mm^3) ([2]; 300 mg/kg, day 8 post transplantation): 72.7 mm^3
- Tumor size (mm^3) ([2]; 300 mg/kg, day 13 post transplantation): 416.3 mm^3
- Tumor size (mm^3) ([2]; 300 mg/kg, day 17 post transplantation): 1224.6 mm^3
- Tumor size (mm^3) ([2]; 300 mg/kg, day 21 post transplantation): 1703.4 mm^3
- Tumor size (mm^3) ([2]; 300 mg/kg, day 24 post transplantation): 2048.5 mm^3
- Tumor size (mm^3) ([2]; 300 mg/kg, day 28 post transplantation): 2525.7 mm^3
- CPE/syncytia (+) ([3]; 0.5 mcg/mL): 4.0 +
- CPE/syncytia (+) ([3]; 1.0 mcg/mL): 2.0 +
- CPE/syncytia (+) ([3]; 5.0 mcg/mL): 0 +
- CPE/syncytia (+) ([3]; 10 mcg/mL): 0 +
- Cell survival rate, % ([3]; 0.5 mcg/mL): 27%
- Number of cells × 10^3/mL ([3]; 0.5 mcg/mL): 133.2 10^3/mL
- Cell survival rate, % ([3]; 1.0 mcg/mL): 75%
- Number of cells × 10^3/mL ([3]; 1.0 mcg/mL): 320.4 10^3/mL
- Cell survival rate, % ([3]; 5.0 mcg/mL): 92%
- Number of cells × 10^3/mL ([3]; 5.0 mcg/mL): 480.0 10^3/mL
- Cell survival rate, % ([3]; 10 mcg/mL): 95%
- Number of cells × 10^3/mL ([3]; 10 mcg/mL): 579.3 10^3/mL
- EC50 (50% effective concentration) ([3]; HIV-1 infected human cells): 5.0 µg/mL
- clinical signs of poisoning [4]: no clinical signs of poisoning were observed
- Basophils, % ([5]; 3 mg/kg): 0%
- Erythrocytes, Mln/mm ([5]; 3 mg/kg): 6.5 ± 1.2 Mln/mm
- Young, % ([5]; 3 mg/kg): 0%
- Basophils, % ([5]; 9 mg/kg): 0%
- Erythrocytes, Mln/mm ([5]; 9 mg/kg): 6.4 ± 0.5 Mln/mm
- Young, % ([5]; 9 mg/kg): 0%
- Avg. erythr. volume., mcm ([5]; 20 mg/kg): 50.4 ± 1.5 mcm
- Basophils, % ([5]; 20 mg/kg): 0%
- Erythrocytes, Mln/mm ([5]; 20 mg/kg): 6.3 ± 0.8 Mln/mm
- Hematocrit, % ([5]; 20 mg/kg): 31.2 ± 3.5%
- Young, % ([5]; 20 mg/kg): 0%
- autopsy finding at the injection site (skeletal muscles) [6]: a brownish color of muscle tissue, fascia, and fat layers was noticed
- Cell survival rate, % ([7]; 0.5 mcg/mL): 95%
- Number of cells × 10^3/mL ([7]; 0.5 mcg/mL): 633 10^3/mL
- Cell survival rate, % ([7]; 1.0 mcg/mL): 94%
- Number of cells × 10^3/mL ([7]; 1.0 mcg/mL): 599 10^3/mL
- Cell survival rate, % ([7]; 5.0 mcg/mL): 96%
- Number of cells × 10^3/mL ([7]; 5.0 mcg/mL): 530 10^3/mL
- Cell survival rate, % ([7]; 10.0 mcg/mL): 92%
- Number of cells × 10^3/mL ([7]; 10.0 mcg/mL): 500 10^3/mL
- Cell survival rate, % ([7]; 100 mcg/mL): 70%
- Number of cells × 10^3/mL ([7]; 100 mcg/mL): 433 10^3/mL
- Alkali hosphatase, Units/L ([8]; 3 mg/kg): 143 ± 47 Units/L
- Cholesterol ([8]; 3 mg/kg): 4.17 ± 0.68 mmol/L
- Glucose ([8]; 3 mg/kg): 7.64 ± 1.56 mmol/L
- Total proten ([8]; 3 mg/kg): 71.12 ± 6.66 g/L
- Alkali hosphatase, Units/L ([8]; 9 mg/kg): 159 ± 28 Units/L
- Glucose ([8]; 9 mg/kg): 7.18 ± 0.80 mmol/L
- Total protein ([8]; 9 mg/kg): 68.94 ± 2.97 g/L
- Total proten ([8]; 9 mg/kg): 78.48 ± 8.94 g/L
- Alkali hosphatase, Units/L ([8]; 20 mg/kg): 248 ± 107 Units/L
- Total proten ([8]; 20 mg/kg): 72.76 ± 8.11 g/L
- Urea ([8]; 20 mg/kg): 9.22 ± 1.56 mmol/L
- Animal body weight ([9]; day 1 post tumor transplantation): 18.6 ± 2.3 g
- Animal body weight ([9]; day 3 post tumor transplantation): 18.8 ± 2.2 g
- Animal body weight ([9]; day 5 post tumor transplantation): 18.8 ± 1.9 g
- Animal body weight ([9]; day 8 post tumor transplantation): 19.4 ± 1.7 g
- Animal body weight ([9]; day 10 post tumor transplantation): 19.9 ± 1.7 g
- Animal body weight ([9]; day 13 post tumor transplantation): 20.4 ± 1.5 g
- Animal body weight ([9]; day 15 post tumor transplantation): 20.4 ± 1.4 g
